Data set [1] deals with Sigma non-opioid intracellular receptor 1 (Homo sapiens) (UniProt Q99720). The note with it: Compound concentration 10.0 uM.
For data set [2], the target named is Prostaglandin F2-alpha receptor (Homo sapiens, UniProt P43088). Description: Binding assay (PTGFR).
The target of data set [3] is 5-hydroxytryptamine receptor 1B (Homo sapiens) (UniProt P28222). The experiment in a line: 5-HT1B CEREP ligand profiling. The note with it: Compound concentration 10.0 uM.
The target of data set [4] is Angiotensin-converting enzyme (Homo sapiens) (UniProt P12821). The experiment in a line: ACE (h) CEREP ligand profiling. The note with it: Compound concentration 10.0 uM.
Data set [5] has as its target Voltage-gated L-type calcium channel (DHP site) (Homo sapiens, UniProt O60840+Q01668+Q13698+Q13936). The experiment in a line: Ca2+ channel (L, DHP site) CEREP ligand profiling. The data set is classed as protein assay. The note with it: compound concentration 10 uM.
Data set [6] deals with Voltage-gated L-type calcium channel (verapamil site) (Homo sapiens, UniProt O60840+Q01668+Q13698+Q13936). The experiment in a line: Ca2+ channel (L, verapamil site) CEREP ligand profiling. The data set is classed as protein assay. The note with it: compound concentration 10 uM.
Data set [7] has as its target High affinity choline transporter 1 (Homo sapiens) (UniProt Q9GZV3). Description: Choline transporter (h) (CHT1) CEREP ligand profiling. The note with it: Compound concentration 10.0 uM.
In data set [8] the target is D(3) dopamine receptor (Homo sapiens) (UniProt P35462). The experiment in a line: D3 (h) CEREP ligand profiling. The note with it: Compound concentration 10.0 uM.
In data set [9] the target is GABA-A receptor; anion channel (Homo sapiens) (UniProt P14867+P47870+P18507+P28472+P48169+Q99928+Q9UN88+P34903+O00591+O14764+Q8N1C3+P18505+P78334+P47869+P31644+Q16445). Description: GABAA CEREP ligand profiling. The data set is classed as protein-complex assay. The note with it: Compound concentration 10.0 uM.
Data set [10] deals with Histamine H2 receptor (Homo sapiens) (UniProt P25021). The experiment in a line: H2 (h) CEREP ligand profiling. The note with it: Compound concentration 10.0 uM.
Data set [11] concerns the target Muscarinic acetylcholine receptor M3 (Homo sapiens) (UniProt P20309). The experiment in a line: M3 (h) CEREP ligand profiling. The note with it: Compound concentration 10.0 uM.
In data set [12] the target is Ribosyldihydronicotinamide dehydrogenase [quinone] (Homo sapiens) (UniProt P16083). The experiment in a line: (§1) ML2 (MT3) CEREP ligand profiling. The note with it: Compound concentration 10.0 uM.
Data set [13] has as its target Ribosyldihydronicotinamide dehydrogenase [quinone] (Homo sapiens, UniProt P16083). The data set is described as §1.
Data set [14] deals with Substance-P receptor (Homo sapiens) (UniProt P25103). The experiment in a line: NK1 (h) CEREP ligand profiling. The note with it: Compound concentration 10.0 uM.
Data set [15] deals with Tyrosine-protein kinase ABL1 (Homo sapiens), P00519 [H396P]. The note with it: Compound concentration 1000.0 nM.
Data set [16] concerns Tyrosine-protein kinase ABL1 (Homo sapiens), P00519 [Q252H]. The note with it: Compound concentration 1000.0 nM.
In data set [17] the target is Cytoplasmic tyrosine-protein kinase BMX (Homo sapiens) (UniProt P51813). The note with it: Compound concentration 1000.0 nM.
Data set [18] has as its target Calcium/calmodulin-dependent protein kinase type IV (Homo sapiens) (UniProt Q16566). The note with it: Compound concentration 1000.0 nM.
Data set [19] has as its target Cyclin-dependent kinase 2 (Homo sapiens) (UniProt P24941). The note with it: Compound concentration 1000.0 nM.
Data set [20] concerns the target Cyclin-dependent kinase-like 5 (Homo sapiens) (UniProt O76039). The note with it: Compound concentration 1000.0 nM.
Data set [21] addresses Serine/threonine-protein kinase Chk2 (Homo sapiens) (UniProt O96017). The note with it: Compound concentration 1000.0 nM.
The target in data set [22] is Macrophage colony-stimulating factor 1 receptor (Homo sapiens) (UniProt P07333). The note with it: Compound concentration 1000.0 nM.
The target in data set [23] is Casein kinase I isoform epsilon (Homo sapiens) (UniProt P49674). The note with it: Compound concentration 1000.0 nM.
The target in data set [24] is Tyrosine-protein kinase Fgr (Homo sapiens) (UniProt P09769). The note with it: Compound concentration 1000.0 nM.
For data set [25], the target named is Beta-adrenergic receptor kinase 1 (Homo sapiens) (UniProt P25098). The note with it: Compound concentration 1000.0 nM.
Data set [26] concerns the target Inhibitor of nuclear factor kappa-B kinase subunit epsilon (Homo sapiens) (UniProt Q14164). The note with it: Compound concentration 1000.0 nM.
Data set [27] addresses Mitogen-activated protein kinase 8 (Homo sapiens) (UniProt P45983). The note with it: Compound concentration 1000.0 nM.
The target of data set [28] is Mitogen-activated protein kinase 10 (Homo sapiens) (UniProt P53779). The note with it: Compound concentration 1000.0 nM.
Data set [29] relates to Leucine-rich repeat serine/threonine-protein kinase 2 (Homo sapiens), Q5S007 [G2019S]. The note with it: Compound concentration 1000.0 nM.
For data set [30], the target named is Mitogen-activated protein kinase kinase kinase 4 (Homo sapiens) (UniProt Q9Y6R4). The note with it: Compound concentration 1000.0 nM.
For data set [31], the target named is MAP kinase-activated protein kinase 5 (Homo sapiens) (UniProt Q8IW41). The note with it: Compound concentration 1000.0 nM.
Data set [32] addresses Cyclin-dependent kinase 18 (Homo sapiens) (UniProt Q07002). The note with it: Compound concentration 1000.0 nM.
Data set [33] has as its system Phosphatidylinositol 4,5-bisphosphate 3-kinase catalytic subunit alpha isoform (Homo sapiens), P42336 [Q546K]. The note with it: Compound concentration 1000.0 nM.
Data set [34] deals with Serine/threonine-protein kinase PknB (Mycobacterium tuberculosis) (UniProt P9WI81). The note with it: Compound concentration 1000.0 nM.
The target in data set [35] is Serine/threonine-protein kinase PLK4 (Homo sapiens) (UniProt O00444). The note with it: Compound concentration 1000.0 nM.
Data set [36] addresses Serine/threonine-protein kinase D1 (Homo sapiens) (UniProt Q15139). The note with it: Compound concentration 1000.0 nM.
The target of data set [37] is Serine/threonine-protein kinase SIK3 (Homo sapiens) (UniProt Q9Y2K2). The note with it: Compound concentration 1000.0 nM.
For data set [38], the target named is Receptor-interacting serine/threonine-protein kinase 4 (Homo sapiens) (UniProt P57078). The note with it: Compound concentration 1000.0 nM.
Data set [39] has as its target Serine/threonine-protein kinase Sgk1 (Homo sapiens) (UniProt O00141). The note with it: Compound concentration 1000.0 nM.
Data set [40] deals with SRSF protein kinase 2 (Homo sapiens) (UniProt P78362). The note with it: Compound concentration 1000.0 nM.
Data set [41] has as its target Serine/threonine-protein kinase 36 (Homo sapiens) (UniProt Q9NRP7). The note with it: Compound concentration 1000.0 nM.
For data set [42], the target named is NT-3 growth factor receptor (Homo sapiens) (UniProt Q16288). The note with it: Compound concentration 1000.0 nM.
Data set [43] has as its target Serine/threonine-protein kinase ULK1 (Homo sapiens) (UniProt O75385). The note with it: Compound concentration 1000.0 nM.
Data set [44] concerns the target Sigma intracellular receptor 2 (Homo sapiens) (UniProt Q5BJF2). The note with it: Compound concentration 10.0 uM.

SMILES strings stand for the structures.

Sequence of Ribosyldihydronicotinamide dehydrogenase [quinone] (P16083 whole entry): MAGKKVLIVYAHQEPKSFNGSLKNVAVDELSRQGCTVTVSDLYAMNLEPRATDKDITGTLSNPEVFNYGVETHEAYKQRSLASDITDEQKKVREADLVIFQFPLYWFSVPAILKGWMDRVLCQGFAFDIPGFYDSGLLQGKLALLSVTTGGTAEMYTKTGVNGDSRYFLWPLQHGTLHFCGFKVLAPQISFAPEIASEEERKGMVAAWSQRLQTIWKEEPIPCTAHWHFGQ
Sequence of 5-hydroxytryptamine receptor 1B (Homo sapiens) (P28222 whole entry): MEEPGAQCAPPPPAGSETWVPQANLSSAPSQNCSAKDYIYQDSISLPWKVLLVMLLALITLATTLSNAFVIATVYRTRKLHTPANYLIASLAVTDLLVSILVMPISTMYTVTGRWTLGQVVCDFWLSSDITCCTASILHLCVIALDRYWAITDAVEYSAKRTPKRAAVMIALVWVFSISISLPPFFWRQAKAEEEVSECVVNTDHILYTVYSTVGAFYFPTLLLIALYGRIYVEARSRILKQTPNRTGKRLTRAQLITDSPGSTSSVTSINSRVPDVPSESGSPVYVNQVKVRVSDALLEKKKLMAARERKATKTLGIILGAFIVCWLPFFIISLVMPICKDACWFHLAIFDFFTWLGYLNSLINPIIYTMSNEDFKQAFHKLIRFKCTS
Sequence of Serine/threonine-protein kinase PknB (Mycobacterium tuberculosis) (P9WI81 whole entry): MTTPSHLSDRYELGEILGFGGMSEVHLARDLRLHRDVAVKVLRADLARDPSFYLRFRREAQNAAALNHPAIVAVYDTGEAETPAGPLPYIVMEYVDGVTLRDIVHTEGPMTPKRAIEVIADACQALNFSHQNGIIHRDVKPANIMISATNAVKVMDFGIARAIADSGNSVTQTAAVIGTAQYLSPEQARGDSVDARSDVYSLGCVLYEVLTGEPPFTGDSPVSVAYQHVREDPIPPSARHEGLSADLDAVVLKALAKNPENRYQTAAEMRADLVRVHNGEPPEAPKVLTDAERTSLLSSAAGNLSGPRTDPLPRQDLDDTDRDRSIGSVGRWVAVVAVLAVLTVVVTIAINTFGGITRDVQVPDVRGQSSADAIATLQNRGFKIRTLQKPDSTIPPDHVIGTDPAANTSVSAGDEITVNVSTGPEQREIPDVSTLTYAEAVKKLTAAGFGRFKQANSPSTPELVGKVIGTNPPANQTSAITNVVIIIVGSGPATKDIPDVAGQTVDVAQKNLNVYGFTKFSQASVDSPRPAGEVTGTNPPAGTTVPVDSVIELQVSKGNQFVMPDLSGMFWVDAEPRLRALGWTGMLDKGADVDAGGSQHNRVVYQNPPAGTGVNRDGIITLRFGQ
Sequence of NT-3 growth factor receptor (Homo sapiens) (Q16288 32-839 limits assumed): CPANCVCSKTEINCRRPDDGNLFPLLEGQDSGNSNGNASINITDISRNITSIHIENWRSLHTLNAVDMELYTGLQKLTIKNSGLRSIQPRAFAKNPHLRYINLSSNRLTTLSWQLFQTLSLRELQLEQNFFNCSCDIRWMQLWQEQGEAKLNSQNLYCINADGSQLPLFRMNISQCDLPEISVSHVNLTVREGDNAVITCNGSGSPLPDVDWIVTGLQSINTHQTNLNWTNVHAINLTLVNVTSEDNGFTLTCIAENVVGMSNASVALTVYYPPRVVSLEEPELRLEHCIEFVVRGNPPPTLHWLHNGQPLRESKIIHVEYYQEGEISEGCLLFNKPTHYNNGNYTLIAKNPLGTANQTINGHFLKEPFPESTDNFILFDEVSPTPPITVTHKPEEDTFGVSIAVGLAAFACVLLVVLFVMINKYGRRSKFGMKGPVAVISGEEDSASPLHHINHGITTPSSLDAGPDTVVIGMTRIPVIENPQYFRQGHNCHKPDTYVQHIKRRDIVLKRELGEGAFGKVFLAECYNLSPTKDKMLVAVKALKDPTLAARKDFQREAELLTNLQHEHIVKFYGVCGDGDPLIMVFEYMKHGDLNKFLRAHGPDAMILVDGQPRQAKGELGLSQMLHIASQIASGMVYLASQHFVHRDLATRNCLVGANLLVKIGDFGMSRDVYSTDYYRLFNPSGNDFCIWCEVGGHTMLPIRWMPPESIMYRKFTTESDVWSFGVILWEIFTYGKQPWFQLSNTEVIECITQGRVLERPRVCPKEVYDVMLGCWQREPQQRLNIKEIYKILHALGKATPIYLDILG
Sequence of Leucine-rich repeat serine/threonine-protein kinase 2 (Homo sapiens), Q5S007 [G2019S] (Q5S007 whole entry G2019S): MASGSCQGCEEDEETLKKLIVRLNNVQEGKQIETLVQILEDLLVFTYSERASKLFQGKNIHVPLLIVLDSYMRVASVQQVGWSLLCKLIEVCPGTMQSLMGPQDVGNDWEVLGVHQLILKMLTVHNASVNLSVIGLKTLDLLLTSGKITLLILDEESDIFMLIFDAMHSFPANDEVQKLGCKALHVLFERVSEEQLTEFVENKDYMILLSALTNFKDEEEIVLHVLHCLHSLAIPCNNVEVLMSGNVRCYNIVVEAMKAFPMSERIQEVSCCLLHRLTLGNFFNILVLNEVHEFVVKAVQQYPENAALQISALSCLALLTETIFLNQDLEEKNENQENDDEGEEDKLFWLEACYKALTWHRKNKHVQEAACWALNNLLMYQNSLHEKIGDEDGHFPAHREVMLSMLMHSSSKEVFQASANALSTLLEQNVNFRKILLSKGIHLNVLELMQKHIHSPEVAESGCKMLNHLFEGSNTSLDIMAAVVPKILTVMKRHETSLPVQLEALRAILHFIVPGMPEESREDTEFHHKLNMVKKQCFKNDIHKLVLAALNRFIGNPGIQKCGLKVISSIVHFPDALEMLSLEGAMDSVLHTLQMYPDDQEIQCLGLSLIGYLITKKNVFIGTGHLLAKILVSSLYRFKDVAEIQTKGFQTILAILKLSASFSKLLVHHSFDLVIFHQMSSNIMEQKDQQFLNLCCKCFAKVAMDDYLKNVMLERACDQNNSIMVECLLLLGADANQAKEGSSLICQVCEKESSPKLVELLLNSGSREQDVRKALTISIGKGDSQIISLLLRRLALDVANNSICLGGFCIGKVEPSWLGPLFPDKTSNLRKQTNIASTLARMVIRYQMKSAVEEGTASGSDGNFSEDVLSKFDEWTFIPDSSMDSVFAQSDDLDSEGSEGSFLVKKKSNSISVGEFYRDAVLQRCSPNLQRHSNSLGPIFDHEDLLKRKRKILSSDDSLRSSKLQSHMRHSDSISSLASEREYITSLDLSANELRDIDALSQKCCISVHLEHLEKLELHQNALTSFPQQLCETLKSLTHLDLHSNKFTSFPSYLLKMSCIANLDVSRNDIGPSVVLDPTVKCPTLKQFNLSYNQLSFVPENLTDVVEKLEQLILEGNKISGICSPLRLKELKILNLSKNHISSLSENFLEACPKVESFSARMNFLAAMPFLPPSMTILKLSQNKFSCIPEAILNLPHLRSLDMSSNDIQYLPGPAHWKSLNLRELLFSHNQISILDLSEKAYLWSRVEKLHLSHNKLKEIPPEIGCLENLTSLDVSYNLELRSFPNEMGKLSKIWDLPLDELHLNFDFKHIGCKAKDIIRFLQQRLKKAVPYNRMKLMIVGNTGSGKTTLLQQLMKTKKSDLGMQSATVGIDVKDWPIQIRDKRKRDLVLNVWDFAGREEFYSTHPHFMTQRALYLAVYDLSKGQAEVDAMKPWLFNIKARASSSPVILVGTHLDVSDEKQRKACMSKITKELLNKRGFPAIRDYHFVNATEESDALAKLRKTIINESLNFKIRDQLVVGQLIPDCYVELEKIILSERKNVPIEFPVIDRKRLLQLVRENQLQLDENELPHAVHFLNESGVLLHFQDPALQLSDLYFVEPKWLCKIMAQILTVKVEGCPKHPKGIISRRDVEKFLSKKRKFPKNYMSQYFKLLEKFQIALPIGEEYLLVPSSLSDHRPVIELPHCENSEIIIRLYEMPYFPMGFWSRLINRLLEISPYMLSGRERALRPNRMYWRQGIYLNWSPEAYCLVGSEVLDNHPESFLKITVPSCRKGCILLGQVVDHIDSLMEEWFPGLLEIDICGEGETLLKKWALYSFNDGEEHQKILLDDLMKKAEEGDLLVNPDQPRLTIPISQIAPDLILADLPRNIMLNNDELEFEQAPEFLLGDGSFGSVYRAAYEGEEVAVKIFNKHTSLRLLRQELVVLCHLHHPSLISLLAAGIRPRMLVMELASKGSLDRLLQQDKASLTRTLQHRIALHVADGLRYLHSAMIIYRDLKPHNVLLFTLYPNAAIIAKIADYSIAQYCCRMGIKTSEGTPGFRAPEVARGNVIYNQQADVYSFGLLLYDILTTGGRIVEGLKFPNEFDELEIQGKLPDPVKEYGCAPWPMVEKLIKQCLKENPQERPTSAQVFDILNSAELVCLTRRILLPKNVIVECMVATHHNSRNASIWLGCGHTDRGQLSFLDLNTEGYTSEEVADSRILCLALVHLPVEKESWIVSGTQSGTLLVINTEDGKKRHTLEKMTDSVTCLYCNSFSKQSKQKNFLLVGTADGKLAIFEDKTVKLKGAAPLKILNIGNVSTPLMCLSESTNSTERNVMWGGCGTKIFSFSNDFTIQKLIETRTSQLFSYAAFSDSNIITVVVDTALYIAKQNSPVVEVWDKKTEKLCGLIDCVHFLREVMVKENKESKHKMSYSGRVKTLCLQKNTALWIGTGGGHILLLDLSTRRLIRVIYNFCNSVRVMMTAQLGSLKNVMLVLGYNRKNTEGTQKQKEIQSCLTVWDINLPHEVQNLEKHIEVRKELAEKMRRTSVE
Sequence of Mitogen-activated protein kinase 10 (Homo sapiens) (P53779 whole entry): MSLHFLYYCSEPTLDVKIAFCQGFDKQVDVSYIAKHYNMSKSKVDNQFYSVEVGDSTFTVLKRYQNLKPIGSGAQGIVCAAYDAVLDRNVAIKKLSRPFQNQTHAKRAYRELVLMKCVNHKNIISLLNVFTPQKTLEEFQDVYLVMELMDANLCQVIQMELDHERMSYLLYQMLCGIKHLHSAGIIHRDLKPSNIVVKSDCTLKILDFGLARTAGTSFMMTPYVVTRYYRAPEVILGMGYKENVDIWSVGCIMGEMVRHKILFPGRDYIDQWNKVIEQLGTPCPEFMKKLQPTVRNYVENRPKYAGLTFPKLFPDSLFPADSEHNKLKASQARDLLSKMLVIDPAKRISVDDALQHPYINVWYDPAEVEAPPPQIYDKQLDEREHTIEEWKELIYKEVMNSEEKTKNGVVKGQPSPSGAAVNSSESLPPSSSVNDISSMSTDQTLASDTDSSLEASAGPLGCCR
Sequence of Ribosyldihydronicotinamide dehydrogenase [quinone] (Homo sapiens) (P16083 whole entry): as the sequence (P16083 whole entry) above

With `O=C(c1ccc(F)cc1)N1CC(COc2ccc(Br)cc2)(C(=O)O)C1` [PF-04475866], the inhibition (as a rule, the drop in the measured response relative to a control, in per cent) in data set [1] is 20.3%.

On to `COc1ccc2cc(OCC3(C(=O)O)CN(C(=O)c4ccc(F)cc4)C3)ccc2c1` [PF-04418948], for which the Ki (as a rule, a dissociation constant, usually derived from enzyme kinetics or from competition with a known ligand) in [2] was > 10000 nM (not active); in data set [13], 520 nM. Further, the inhibition was -7% in [3]; 14% in data set [4]; 4% in data set [7]; 1% in data set [8]; 16% in data set [9]; 3% in [10]. Further, the inhibition in [11] is 1%; in data set [12], 93%; in data set [14], 3%; in [44], -1.29%. Moreover, the values for the inhibition at 10 µM in [5] and in data set [6] were -3% (not active) and -5% (not active), respectively. Further, in [13], inhibition was half-maximal at 530 nM (IC50). For the same compound, the residual activity in data set [15] was 74%; in data set [16], 90%; in [17], 87%; in data set [18], 88%; in [19], 91%; in data set [20] it was 97%. For the same compound, the residual activity was 93% in data set [21]; 75% in data set [22]; 94% in [23]; 96% in [24]; 72% in [25]; 95% in [26]. Moreover, the residual activity in data set [27] is 76%; in data set [28], 85%; in [29], 84%; in data set [30] it was 65%; in data set [31], 76%; in data set [32], 98%. The residual activity was 42% in data set [33]; 88% in data set [34]; 82% in data set [35]; 96% in [36]; 72% in data set [37]; 66% in [38]. Moreover, the residual activity was 81% in data set [39]; 84% in data set [40]; 89% in data set [41]; 98% in data set [42]; 92% in data set [43].

Values taken from ChEMBL document CHEMBL4507298 (2021).
